Data published in patent US7566712B2, “Biaryl piperazinyl-pyridine analogues” (Neurogen Corporation, priority 2003, dated 2009).

These compounds were tested against T1, human capsaicin receptor (Homo sapiens, UniProt Q8NER1) (assay: Calcium mobilization assay, determination of antagonist activity (Example 6)). Conditions: Table II; IC50 determined as described in Example 6.
T1 construct: pBK-CMV expression construct encoding the full length human capsaicin receptor; expressed in transfected cells
T1 sequence (Q8NER1 whole entry): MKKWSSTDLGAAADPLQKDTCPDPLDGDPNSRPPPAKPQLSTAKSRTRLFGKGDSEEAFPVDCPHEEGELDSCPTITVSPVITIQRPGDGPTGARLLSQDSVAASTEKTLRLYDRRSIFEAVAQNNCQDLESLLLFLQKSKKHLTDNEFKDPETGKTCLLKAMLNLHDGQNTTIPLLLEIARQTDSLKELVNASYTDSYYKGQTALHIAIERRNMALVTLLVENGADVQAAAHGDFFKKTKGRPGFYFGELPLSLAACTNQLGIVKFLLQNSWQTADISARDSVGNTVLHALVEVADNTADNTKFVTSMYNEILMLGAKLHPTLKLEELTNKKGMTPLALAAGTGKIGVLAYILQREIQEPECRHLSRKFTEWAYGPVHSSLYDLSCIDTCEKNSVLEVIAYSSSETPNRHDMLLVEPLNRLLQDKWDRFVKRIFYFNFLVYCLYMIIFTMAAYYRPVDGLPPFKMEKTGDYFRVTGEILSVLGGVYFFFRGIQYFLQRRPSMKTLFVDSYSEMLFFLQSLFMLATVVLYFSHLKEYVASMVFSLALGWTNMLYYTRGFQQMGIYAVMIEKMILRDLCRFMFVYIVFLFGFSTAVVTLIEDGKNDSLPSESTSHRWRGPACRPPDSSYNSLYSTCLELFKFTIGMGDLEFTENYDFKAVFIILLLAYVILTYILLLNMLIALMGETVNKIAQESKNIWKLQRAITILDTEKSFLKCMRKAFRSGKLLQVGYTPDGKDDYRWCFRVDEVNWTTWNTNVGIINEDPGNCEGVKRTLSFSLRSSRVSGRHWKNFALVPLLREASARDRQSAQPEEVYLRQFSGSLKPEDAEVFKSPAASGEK
Format: cell-based
Method in brief: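 HEK293 clonal lines stably expressing full-length human capsaicin receptor, loaded with Fluo-3 AM in KRH buffer pH 7.4, 1–2 h at 37 °C. Compounds (1–5 μM final) preincubated 0.5–6 h at room temperature, then capsaicin at its EC50 added. FLIPR/Fluoroskan calcium signal; IC50 as 50% decrease of capsaicin response.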

Structure (SMILES) | IC50 [nM]
CN(CCO)c1nc(-c2ccc(F)c(Cl)c2)cc(N2CCN(c3ncccc3C(F)(F)F)CC2)n1 [Example 549, 2-[(4-(3-chloro-4-fluorophenyl)-6-{4-[3-(trifluoromethyl)pyridin-2-yl]piperazin-1-yl}pyrimidin-2-yl)(methyl)amino]ethanol] | ≤ 1000
C=CCN1CCN(c2nc(-c3ccc(Cl)cc3)nc(N3CCN(c4ncccc4C(F)(F)F)CC3)n2)CC1 [Example 445, 2-(4-allylpiperazin-1-yl)-4-(4-chlorophenyl)-6-{4-[3-(trifluoromethyl)pyridin-2-yl]piperazin-1-yl}-1,3,5-triazine] | ≤ 1000
N#Cc1ccc(-c2nc(N3CCOCC3)nc(N3CCN(c4ncccc4C(F)(F)F)CC3)n2)cc1 [Example 436, 4-(4-morpholin-4-yl-6-{4-[3-(trifluoromethyl)pyridin-2-yl]piperazin-1-yl}-1,3,5-triazin-2-yl)benzonitrile] | ≤ 1000
COc1ccc(-c2cc(N3CCN(c4ncccc4C(F)(F)F)C[C@H]3C)nc(N3CCOCC3)n2)cc1F [Example 541, 4-(4-(3-fluoro-4-methoxyphenyi)-6-{(2R)-2-methyl-4-[3-(trifluoromethyl)pyridin-2-yl]piperazin-1-yl}pyrimidin-2-yl)morpholine] | ≤ 1000
Cc1cccnc1N1CCN(c2cc(-c3cccc(OC(F)(F)F)c3)nc(N3CCOCC3)n2)[C@H](C)C1 [Example 533, 4-{4-[(2R)-2-methyl-4-(3-methylpyridin-2-yl)piperazin-1-yl]-6-[3-(trifluoromethoxy)phenyl]pyrimidin-2-yl}morpholine] | ≤ 1000
C[C@@H]1CN(c2ncccc2Cl)CCN1c1cc(-c2ccc(F)cc2)nc(N2CCOCC2)n1 [Example 487, 4-[4-[(2R)-4-(3-chloropyridin-2-yl)-2-methylpiperazin-1-yl]-6-(4-fluorophenyl)pyrimidin-2-yl]morpholine] | ≤ 1000
CCc1ccc(-c2cc(N3CCN(c4ncccc4Cl)C[C@H]3C)nc(N3CCOCC3)n2)cc1 [Example 511, 4-[4-[(2R)-4-(3-chloropyridin-2-yl)-2-methylpiperazin-1-yl]-6-(4-ethylphenyl)pyrimidin-2-yl]morpholine] | ≤ 1000
O=C(O)[C@@H]1CCCN1c1nc(-c2ccc(F)c(Cl)c2)cc(N2CCN(c3ncccc3C(F)(F)F)CC2)n1 [Example 552, 1-(4-(3-chloro-4-fluorophenyl)-6-{4-[3-(trifluoromethyl)pyridin-2-yl]piperazin-1-yl}pyrimidin-2-yl)-L-proline] | ≤ 1000

Same assay, conditions: Table II; IC50 determined as described in Example 6 (antagonist activity, calcium mobilization)

Structure (SMILES) | IC50 [nM]
C[C@H]1CN(c2nccnc2Cl)CCN1c1cc(-c2ccc(F)c(Cl)c2)nc(N2CCC[C@@H]2C)n1 [Example 987, 4-(3-chloro-4-fluorophenyl)-6-[(2S)-4-(3-chloropyrazin-2-yl)-2-methylpiperazin-1-yl]-2-[(2S)-2-methylpyrrolidin-1-yl]pyrimidine] | ≤ 1000
CC1CCCN1c1nc(-c2ccc(F)cc2)cc(N2CCN(c3nc(Cl)ccc3Cl)C[C@H]2C)n1 (some centres unmarked) [Example 1011, 4-[4-(3,6-dichloropyridin-2-yl)-2-methylpiperazin-1-yl]-6-(4-fluorophenyi)-2-(2-methylpyrrolidin-1-yl)pyrimidine] | ≤ 1000

Same assay, conditions: Table II; determined as described in Example 6 (antagonist activity); "*" = 1 micromolar or less

Structure (SMILES) | IC50 [nM]
O=C(O)C1CCCN(c2nc(-c3ccc(F)c(Cl)c3)cc(N3CCN(c4ncccc4C(F)(F)F)CC3)n2)C1 (centres unmarked) [Example 800, 1-(4-(3-chloro-4-fluorophenyl)-6-{4-[3-(trifluoromethyl)pyridin-2-yl]piperazin-1-yl}pyrimidin-2-yl)piperidine-3-carboxylic acid] | ≤ 1000
C[C@@H]1CN(c2nccnc2Cl)CCN1c1cc(-c2ccc(F)cc2)nc(N2CCCC2)n1 [Example 928, 4-[(2R)-4-(3-chloropyrazin-2-yl)-2-methylpiperazin-1-yl]-6-(4-fluorophenyl)-2-pyrrolidin-1-ylpyrimidine] | ≤ 1000
COc1ncc(Cl)c(N2CCN(c3cc(-c4ccc(F)cc4)nc(N4CCC[C@H]4C)n3)[C@H](C)C2)n1 [Example 966, 5-chloro-4-((3R)-4-{6-(4-fluorophenyl)-2-[(2R)-2-methylpyrrolidin-1-yl]pyrimidin-4-yl}-3-methylpiperazin-1-yl)-2-methoxypyrimidine] | ≤ 1000
Cc1ccc(-c2cc(N3CCN(c4ncccc4Cl)C[C@H]3C)nc(N3CCCC3)n2)cc1C [Example 805, 4-[(2R)-4-(3-chloropyridin-2-yl)-2-methylpiperazin-1-yl]-6-(3,4-dimethylphenyl)-2-pyrrolidin-1-ylpyrimidine] | ≤ 1000

Same assay, conditions: determined as described in Example 6 (calcium mobilization, antagonist activity); Table II

Structure (SMILES) | IC50 [nM]
C[C@@H]1CN(c2ncccc2Cl)CCN1c1cc(-c2ccc(F)c(Cl)c2)nc(SCc2ccccc2)n1 [Example 722, 2-(benzylthio)-4-(3-chloro-4-fluorophenyl)-6-[(2R)-4-(3-chloropyridin-2-yl)-2-methylpiperazin-1-yl]pyrimidine] | ≤ 1000
Fc1ccc(-c2cc(N3CCN(c4ncccc4C(F)(F)F)CC3)nc(N3CCN(c4ncccc4C(F)(F)F)CC3)n2)cc1Cl [Example 673, 4-(3-chloro-4-fluorophenyl)-2,6-bis{4-[3-(trifluoromethyl)pyridin-2-yl]piperazin-1-yl}pyrimidine] | ≤ 1000
CN(C)C(=O)CN1CCN(c2nc(-c3ccc(F)c(Cl)c3)cc(N3CCN(c4ncccc4C(F)(F)F)CC3)n2)CC1 [Example 652, 2-[4-(4-(3-chloro-4-fluorophenyl)-6-{4-[3-(trifluoromethyl)pyridin-2 yl]piperazin-1-yl}pyrimidin-2-yl)piperazin-1-yl]-N,N-dimethylacetamide] | ≤ 1000
CC(C)N1CCN(c2nc(-c3ccc(F)c(Cl)c3)cc(N3CCN(c4ncccc4C(F)(F)F)CC3)n2)CC1 [Example 598, 4-(3-chloro-4-fluorophenyl)-2-(4-isopropylpiperazin-1-yl)-6-{4-[3-(trifluoromethyl)pyridin-2-yl]piperazin-1-yl}pyrimidine] | ≤ 1000
CC(C)c1nccn1-c1nc(-c2ccc(F)c(Cl)c2)cc(N2CCN(c3ncccc3C(F)(F)F)CC2)n1 [Example 651, 4-(3-chloro-4-fluorophenyl)-2-(2-isopropyl-1H-imidazo-1-yl)-6-{4-[3-(trifluoromethyl)pyridin-2-yl]piperazin-1-yl}pyrimidine] | ≤ 1000
Cc1cc(-c2cc(N3CCN(c4ncccc4C(F)(F)F)CC3)nc(-c3nccn3C(C)C)n2)ccc1F [Example 684, 4-(4-fluoro-3-methylphenyl)-2-(1-isopropyl-1H-imidazol-2-yl)-6-{4-[3-(trifluoromethyl)pyridin-2-yl]piperazin-1-yl}pyrimidine] | ≤ 1000
CC(C)c1nccn1-c1nc(-c2cccc(Cl)c2)cc(N2CCN(c3ncccc3C(F)(F)F)CC2)n1 [Example 618, 4-(3-chlorophenyl)-2-(2-isopropyl-1H-imidazol-1-yl)-6-{4-[3-(trifluoromethyl)pyridin-2-yl]piperazin-1-yl}pyrimidine] | ≤ 1000
Cc1cc(-c2cc(N3CCN(c4ncccc4C(F)(F)F)CC3)nc(N3CCN(C(C)C)CC3)n2)ccc1F [Example 716, 4-(4-fluoro-3-methylphenyl)-2-(4-isopropylpiperazin-1-yl)-6-{4-[3-(trifluoromethyl)pyridin-2-yl]piperazin-1-yl}pyrimidine] | ≤ 1000
Cc1ccc(-c2cc(N3CCN(c4ncccc4C(F)(F)F)CC3)nc(N3CCOCC3)n2)cn1 [Example 606, 4-(4-(6-methylpyridin-3-yl)-6-{4-[3-(trifluoromethyl)pyridin-2-yl]piperazin-1-yl}pyrimidin-2-yl)morpholine] | ≤ 1000
